Test [1] concerns reversibly immortalized mouse beta (R7T1) cells. Kind of test: R7T1 proliferation assay (CellTiter Glo). In kind it is cell-based. The following applies: growth-arrested R7T1 cells. The protocol: Reversibly immortalized mouse β-cells (R7T1)[49] express SV40 T antigen under a tetracycline inducible promoter. R7T1 cells were expanded in the presence of doxycycline. For experiments on proliferation, R7T1 cells were growth arrested by removal of doxycycline for 2 days and plated into 384-well plates at a density of 3,000 cells per well in growth medium. β-Cell proliferation was assessed using CellTiter Glo (Promega) after 4 days. Fold increase in cell number was calculated by normalizing compound-treated wells to the median of DMSO-treated wells.

The target in the next test is T1, IKKb (Homo sapiens, UniProt O14920).
T1 construct: purchased Ambit KINOMEscan
Briefly: Kinase profiling. The following applies: Conc 1000 nM; read-out: Percent inhibition, IKKb. The class given is biochemical. The source says: (§1) ; Fig. 5a; Supplementary Table 1). We focused on Dyrk1a because other kinases inhibited by aminopyrazine compounds were not highly expressed in β-cells and because Dyrk1a was known to inhibit the NFAT pathway that was previously implicated in β-cell proliferation. We used molecular modelling to dock the aminopyrazine compounds into the published structure of Dyrk1a (protein databank accession code 2vx3.pdb; Fig. 5b).

For another test, the target named is T2, PDGFRb (Homo sapiens, UniProt P09619).
T2 construct: purchased Ambit (KINOMEscan)
T2 sequence (P09619 33-1106): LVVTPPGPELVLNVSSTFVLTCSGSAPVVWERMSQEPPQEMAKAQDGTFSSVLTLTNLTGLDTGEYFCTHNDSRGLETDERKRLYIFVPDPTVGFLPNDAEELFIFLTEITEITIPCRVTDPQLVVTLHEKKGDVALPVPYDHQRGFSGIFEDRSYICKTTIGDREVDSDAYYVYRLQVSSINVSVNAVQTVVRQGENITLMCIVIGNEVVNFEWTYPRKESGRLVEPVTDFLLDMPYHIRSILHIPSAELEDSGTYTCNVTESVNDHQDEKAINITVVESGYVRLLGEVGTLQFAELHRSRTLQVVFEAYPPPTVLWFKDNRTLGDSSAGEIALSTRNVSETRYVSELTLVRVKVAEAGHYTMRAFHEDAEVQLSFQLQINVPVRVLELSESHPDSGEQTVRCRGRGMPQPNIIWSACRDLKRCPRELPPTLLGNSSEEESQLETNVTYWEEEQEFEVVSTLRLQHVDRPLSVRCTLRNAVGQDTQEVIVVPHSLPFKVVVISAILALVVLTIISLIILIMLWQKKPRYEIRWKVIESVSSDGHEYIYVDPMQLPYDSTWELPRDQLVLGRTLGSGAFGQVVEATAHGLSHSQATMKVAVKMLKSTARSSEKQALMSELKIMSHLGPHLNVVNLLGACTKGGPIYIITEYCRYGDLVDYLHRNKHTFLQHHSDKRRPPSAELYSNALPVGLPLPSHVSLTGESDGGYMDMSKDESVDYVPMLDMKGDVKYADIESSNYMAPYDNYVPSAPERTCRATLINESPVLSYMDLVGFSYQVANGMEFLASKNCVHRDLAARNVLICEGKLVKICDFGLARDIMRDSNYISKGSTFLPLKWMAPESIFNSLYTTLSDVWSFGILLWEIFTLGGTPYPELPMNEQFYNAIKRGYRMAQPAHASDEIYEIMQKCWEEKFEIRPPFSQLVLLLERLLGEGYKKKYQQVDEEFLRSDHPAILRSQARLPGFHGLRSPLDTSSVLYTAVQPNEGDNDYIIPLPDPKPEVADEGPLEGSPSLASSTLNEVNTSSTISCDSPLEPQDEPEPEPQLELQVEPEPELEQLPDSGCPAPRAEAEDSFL
Briefly: Kinase profiling. The class given is biochemical. To be noted: read-out: Percent inhibition, PDGFRb; for inhibition at 1 µM: Conc 1000 nM.
Source text: as §1

Another test has as its target T3, EGFR (Homo sapiens, UniProt P00533).
T3 construct: purchased Ambit KINOMEscan
Briefly: Kinase profiling. The class given is biochemical. The following applies: Conc 1000 nM; read-out: Percent inhibition, EGFR.
Source text: as §1

Another test has as its target T4, SGK1 (Homo sapiens, UniProt O00141).
T4 construct: purchased Ambit (KINOMEscan)
Briefly: Kinase profiling. The class given is biochemical. To be noted: Conc 1000 nM; read-out: Percent inhibition, SGK1.
Source text: as §1

For the next test, the target named is T5, AKT3 (Homo sapiens, UniProt Q9Y243).
T5 construct: purchased Ambit KINOMEscan
Kind of test: Kinase profiling. To be noted: Conc 1000 nM; read-out: Percent inhibition, AKT3. In kind it is biochemical.
Source text: as §1

The target in a further test is T6, InsR (Homo sapiens, UniProt P06213).
T6 construct: purchased Ambit KINOMEscan
T6 sequence (P06213 28-1382): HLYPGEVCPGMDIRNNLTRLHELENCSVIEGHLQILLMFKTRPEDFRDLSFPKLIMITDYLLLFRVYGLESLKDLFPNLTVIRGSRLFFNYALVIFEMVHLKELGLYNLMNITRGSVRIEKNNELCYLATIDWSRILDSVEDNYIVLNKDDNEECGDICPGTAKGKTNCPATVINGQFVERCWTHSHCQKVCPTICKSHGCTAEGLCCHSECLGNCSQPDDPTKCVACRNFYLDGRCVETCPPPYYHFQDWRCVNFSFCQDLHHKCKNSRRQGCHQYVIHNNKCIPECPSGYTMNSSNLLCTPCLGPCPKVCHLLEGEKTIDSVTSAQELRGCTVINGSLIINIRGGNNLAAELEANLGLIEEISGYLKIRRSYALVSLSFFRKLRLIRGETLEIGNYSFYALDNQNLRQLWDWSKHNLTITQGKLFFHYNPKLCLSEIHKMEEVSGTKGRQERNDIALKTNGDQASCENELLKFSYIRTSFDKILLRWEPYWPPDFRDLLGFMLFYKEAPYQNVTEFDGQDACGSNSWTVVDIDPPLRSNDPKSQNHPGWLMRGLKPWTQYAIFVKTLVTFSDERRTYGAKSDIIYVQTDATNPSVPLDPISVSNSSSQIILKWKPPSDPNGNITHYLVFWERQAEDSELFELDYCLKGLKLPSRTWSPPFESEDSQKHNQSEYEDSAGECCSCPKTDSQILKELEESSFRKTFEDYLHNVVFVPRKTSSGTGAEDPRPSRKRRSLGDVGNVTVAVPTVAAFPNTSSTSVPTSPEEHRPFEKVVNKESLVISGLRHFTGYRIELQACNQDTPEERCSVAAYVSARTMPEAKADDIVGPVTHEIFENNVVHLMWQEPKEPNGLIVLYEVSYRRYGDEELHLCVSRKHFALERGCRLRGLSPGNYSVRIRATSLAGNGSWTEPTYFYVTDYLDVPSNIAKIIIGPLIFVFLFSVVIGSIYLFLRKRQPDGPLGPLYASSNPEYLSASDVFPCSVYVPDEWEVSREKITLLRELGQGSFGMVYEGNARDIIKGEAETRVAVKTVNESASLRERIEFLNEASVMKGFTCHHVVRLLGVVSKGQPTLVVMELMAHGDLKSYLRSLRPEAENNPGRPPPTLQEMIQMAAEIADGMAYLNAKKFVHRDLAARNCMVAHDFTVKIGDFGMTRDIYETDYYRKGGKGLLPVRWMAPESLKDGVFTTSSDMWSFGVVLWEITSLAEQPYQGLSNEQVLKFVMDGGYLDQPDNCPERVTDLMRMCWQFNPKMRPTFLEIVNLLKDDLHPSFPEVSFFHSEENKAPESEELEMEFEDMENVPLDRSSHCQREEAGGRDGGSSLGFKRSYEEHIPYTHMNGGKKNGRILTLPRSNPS
Kind of test: Kinase profiling. The class given is biochemical. The following applies: Conc 1000 nM; read-out: Percent inhibition, InsR.
Source text: as §1

The next test has as its target T7, IGF1R (Homo sapiens, UniProt P08069).
T7 construct: purchased Ambit KINOMEscan
Briefly: Kinase profiling. The following applies: Conc 1000 nM; read-out: Percent inhibition, IGF1R. In kind it is biochemical.
Source text: as §1

For another test, the target named is T8, AURORA-A (Homo sapiens, UniProt O14965).
T8 construct: purchased Ambit KINOMEscan
T8 sequence (O14965 1-403): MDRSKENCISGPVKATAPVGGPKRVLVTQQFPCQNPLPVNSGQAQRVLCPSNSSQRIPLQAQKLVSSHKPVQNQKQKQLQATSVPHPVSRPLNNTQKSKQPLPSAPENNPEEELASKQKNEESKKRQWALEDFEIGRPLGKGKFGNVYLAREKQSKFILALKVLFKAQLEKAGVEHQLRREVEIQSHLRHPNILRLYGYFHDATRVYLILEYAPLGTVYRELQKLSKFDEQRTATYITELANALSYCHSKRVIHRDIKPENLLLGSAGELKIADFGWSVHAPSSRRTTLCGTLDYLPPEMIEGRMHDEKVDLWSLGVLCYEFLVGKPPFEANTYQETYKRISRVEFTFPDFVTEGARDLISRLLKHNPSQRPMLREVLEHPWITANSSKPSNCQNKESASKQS
Kind of test: Kinase profiling. In kind it is biochemical. The following applies: read-out: Percent inhibition, AURORA-A; for inhibition at 1 µM: Conc 1000 nM.
Source text: as §1

The target of a further test is T9, SRC (Homo sapiens, UniProt P12931).
T9 construct: purchased Ambit (KINOMEscan)
T9 sequence (P12931 whole entry): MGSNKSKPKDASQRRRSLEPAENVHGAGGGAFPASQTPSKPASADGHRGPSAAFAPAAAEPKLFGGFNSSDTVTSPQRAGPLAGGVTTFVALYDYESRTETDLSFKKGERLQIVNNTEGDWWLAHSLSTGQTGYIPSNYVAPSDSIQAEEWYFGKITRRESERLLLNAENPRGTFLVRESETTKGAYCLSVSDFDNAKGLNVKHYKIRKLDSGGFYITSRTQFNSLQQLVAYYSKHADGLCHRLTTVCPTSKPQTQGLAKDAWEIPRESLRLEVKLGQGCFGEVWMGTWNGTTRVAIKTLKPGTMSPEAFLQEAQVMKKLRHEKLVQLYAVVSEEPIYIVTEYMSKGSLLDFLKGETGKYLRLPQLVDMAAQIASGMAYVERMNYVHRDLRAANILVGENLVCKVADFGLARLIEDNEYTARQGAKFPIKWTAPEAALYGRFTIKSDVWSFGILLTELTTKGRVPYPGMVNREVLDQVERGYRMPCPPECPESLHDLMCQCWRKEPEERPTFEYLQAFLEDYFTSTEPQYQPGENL
Kind of test: Kinase profiling. The class given is biochemical. To be noted: Conc 1000 nM; read-out: Percent inhibition, SRC.
Source text: as §1

The target in another test is T10, BMX (Homo sapiens, UniProt P51813).
T10 construct: purchased Ambit KINOMEscan
Kind of test: Kinase profiling. In kind it is biochemical. To be noted: Conc 1000 nM; read-out: Percent inhibition, BMX.
Source text: as §1

The target in another test is T11, FGFR3 (Homo sapiens, UniProt P22607).
T11 construct: purchased Ambit KINOMEscan
Kind of test: Kinase profiling. The class given is biochemical. To be noted: Conc 1000 nM; read-out: Percent inhibition, FGFR3.
Source text: as §1

The next test has as its target T12, cRAF (Homo sapiens, UniProt P04049).
T12 construct: purchased Ambit KINOMEscan
Kind of test: Kinase profiling. The class given is biochemical. To be noted: Conc 1000 nM; read-out: Percent inhibition, cRAF.
Source text: as §1

Another test concerns the target T13, JNK2 (Homo sapiens, UniProt P45984).
T13 construct: purchased Ambit KINOMEscan
Kind of test: Kinase profiling. In kind it is biochemical. The following applies: Conc 1000 nM; read-out: Percent inhibition, JNK2.
Source text: as §1

For a further test, the target named is T14, MET (Homo sapiens, UniProt P08581).
T14 construct: purchased Ambit (KINOMEscan)
Briefly: Kinase profiling. The class given is biochemical. To be noted: Conc 1000 nM; read-out: Percent inhibition, MET.
Source text: as §1

Another test has as its target T15, PDK1 (Homo sapiens, UniProt O15530).
T15 construct: purchased Ambit (KINOMEscan)
Kind of test: Kinase profiling. In kind it is biochemical. The following applies: Conc 1000 nM; read-out: Percent inhibition, PDK1.
Source text: as §1

The next test concerns the target T16, TYRO3 (Homo sapiens, UniProt Q06418).
T16 construct: purchased Ambit (KINOMEscan)
Kind of test: Kinase profiling. The class given is biochemical. The following applies: Conc 1000 nM; read-out: Percent inhibition, TYRO3.
Source text: as §1

For a further test, the target named is T17, PLK1 (Homo sapiens, UniProt P53350).
T17 construct: purchased Ambit (KINOMEscan)
T17 sequence (P53350 whole entry): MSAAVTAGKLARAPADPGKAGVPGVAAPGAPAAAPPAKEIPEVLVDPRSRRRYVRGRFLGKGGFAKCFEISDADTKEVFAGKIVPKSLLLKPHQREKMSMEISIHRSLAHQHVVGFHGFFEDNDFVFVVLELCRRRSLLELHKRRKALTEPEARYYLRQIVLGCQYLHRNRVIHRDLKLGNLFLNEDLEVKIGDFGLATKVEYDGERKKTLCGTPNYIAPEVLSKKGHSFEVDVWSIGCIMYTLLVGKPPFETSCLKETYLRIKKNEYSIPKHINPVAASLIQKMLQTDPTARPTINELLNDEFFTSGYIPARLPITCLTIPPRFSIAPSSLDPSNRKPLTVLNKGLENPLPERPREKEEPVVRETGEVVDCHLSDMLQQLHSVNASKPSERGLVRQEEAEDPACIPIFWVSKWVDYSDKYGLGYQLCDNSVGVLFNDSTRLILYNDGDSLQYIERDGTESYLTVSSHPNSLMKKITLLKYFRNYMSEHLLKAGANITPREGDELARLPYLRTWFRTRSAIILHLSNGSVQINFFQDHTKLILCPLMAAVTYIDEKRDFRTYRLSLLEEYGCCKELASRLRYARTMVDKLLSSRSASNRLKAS
Briefly: Kinase profiling. The following applies: Conc 1000 nM; read-out: Percent inhibition, PLK1. In kind it is biochemical.
Source text: as §1

The target of another test is T18, CHEK1 (Homo sapiens, UniProt O14757).
T18 construct: purchased Ambit KINOMEscan
Briefly: Kinase profiling. In kind it is biochemical. To be noted: Conc 1000 nM; read-out: Percent inhibition, CHEK1.
Source text: as §1

The target of the next test is T19, SYK (Homo sapiens, UniProt P43405).
T19 construct: purchased Ambit (KINOMEscan)
Kind of test: Kinase profiling. The class given is biochemical. To be noted: read-out: Percent inhibition, SYK; for inhibition at 1 µM: Conc 1000 nM.
Source text: as §1

Here are results for 2 molecules from PMC4639830, “Inhibition of DYRK1A and GSK3B induces human β-cell proliferation” (Nature Communications, 2015).

Structures are written as SMILES.

T16 sequence (Q06418 41-890): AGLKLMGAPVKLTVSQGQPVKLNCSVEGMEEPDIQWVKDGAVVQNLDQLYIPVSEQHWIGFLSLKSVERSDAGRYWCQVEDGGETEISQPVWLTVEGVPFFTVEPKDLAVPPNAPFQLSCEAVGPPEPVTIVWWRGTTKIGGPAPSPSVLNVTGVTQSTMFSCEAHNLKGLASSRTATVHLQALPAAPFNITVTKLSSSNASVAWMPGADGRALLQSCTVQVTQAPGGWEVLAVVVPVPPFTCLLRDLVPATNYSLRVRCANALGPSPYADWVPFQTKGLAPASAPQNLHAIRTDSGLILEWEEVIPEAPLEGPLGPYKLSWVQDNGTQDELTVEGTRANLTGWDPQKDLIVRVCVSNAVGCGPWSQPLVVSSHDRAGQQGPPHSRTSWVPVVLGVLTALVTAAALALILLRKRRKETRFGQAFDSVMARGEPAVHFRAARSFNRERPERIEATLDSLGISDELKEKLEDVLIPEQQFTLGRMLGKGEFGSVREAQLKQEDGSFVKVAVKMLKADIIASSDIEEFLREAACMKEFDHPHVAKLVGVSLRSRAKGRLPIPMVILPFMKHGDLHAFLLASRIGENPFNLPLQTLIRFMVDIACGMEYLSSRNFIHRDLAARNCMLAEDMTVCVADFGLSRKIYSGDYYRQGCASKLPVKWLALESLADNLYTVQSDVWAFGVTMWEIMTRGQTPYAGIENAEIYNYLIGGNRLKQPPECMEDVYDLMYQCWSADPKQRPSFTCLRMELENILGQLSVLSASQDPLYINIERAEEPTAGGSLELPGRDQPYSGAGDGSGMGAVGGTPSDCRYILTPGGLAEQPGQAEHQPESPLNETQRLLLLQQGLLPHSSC
T12 sequence (P04049 whole entry): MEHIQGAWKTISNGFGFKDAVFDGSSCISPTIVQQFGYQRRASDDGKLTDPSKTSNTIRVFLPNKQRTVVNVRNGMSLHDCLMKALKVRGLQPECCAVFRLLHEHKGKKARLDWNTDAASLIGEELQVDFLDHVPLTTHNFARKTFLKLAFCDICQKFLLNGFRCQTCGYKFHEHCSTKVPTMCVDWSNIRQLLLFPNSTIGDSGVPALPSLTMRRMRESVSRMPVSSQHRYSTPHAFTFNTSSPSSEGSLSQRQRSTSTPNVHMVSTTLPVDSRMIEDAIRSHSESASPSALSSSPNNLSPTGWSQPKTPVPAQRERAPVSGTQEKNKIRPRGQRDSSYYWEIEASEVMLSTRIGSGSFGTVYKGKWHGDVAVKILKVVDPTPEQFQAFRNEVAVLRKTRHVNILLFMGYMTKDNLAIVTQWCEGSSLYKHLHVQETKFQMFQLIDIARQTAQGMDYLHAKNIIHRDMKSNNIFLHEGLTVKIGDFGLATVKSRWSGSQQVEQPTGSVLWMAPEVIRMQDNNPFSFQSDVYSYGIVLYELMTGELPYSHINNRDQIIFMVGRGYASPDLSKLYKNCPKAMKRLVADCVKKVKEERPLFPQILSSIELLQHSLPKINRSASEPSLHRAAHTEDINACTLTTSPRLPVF

On to `Nc1ncc(-c2ccccc2)nc1C(=O)Nc1cnccc1N1CCC(C(=O)O)CC1` [GNF7156], for which a half-maximal effect in [1] (EC50) was put at 2200 nM. The inhibition at 1 µM at IKKb was determined as 8%; on PDGFRb it was 94%; at EGFR, 71%; on SGK1, 39%; at AKT3 it was 7%; on InsR, 24%. In addition, the inhibition at 1 µM was determined as 19% at IGF1R; 95% at AURORA-A; 61% on SRC; 88% on BMX; 60% at FGFR3; 17% on cRAF. The inhibition at 1 µM worked out at 68% at JNK2; 47% on MET; 43% at PDK1; 52% at TYRO3; 85% at PLK1; 12% on CHEK1. For the same molecule, the inhibition at 1 µM at SYK was found to be 93%.

As for `CC(C)Oc1ccc(F)c(-c2cnc(N)c(C(=O)Nc3cnccc3N3CCC[C@@H](C(=O)O)C3)n2)c1` [GNF4877], in test [1], the EC50 amounted to 660 nM. The inhibition at 1 µM is -1% at IKKb; 94% on PDGFRb; 44% at EGFR; 67% at SGK1; 25% at AKT3; 51% on InsR. Also, the inhibition at 1 µM on IGF1R was found to be 49%; at AURORA-A, 84%; on SRC, 64%; on BMX, 43%; at FGFR3, 32%; at cRAF, 18%. Moreover, the inhibition at 1 µM on JNK2 came out at 51%; on MET it was 63%; on PDK1 it was 45%; at TYRO3 it was 46%; on PLK1 it was 22%; at CHEK1 it was 43%. Further, the inhibition at 1 µM on SYK was found to be 95%. In addition, the inhibition at 0.2 µM on PDGFRb (Conc 200 nM) was found to be 0%; at AURORA-A (Conc 200 nM), 0%; at SYK (Conc 200 nM) it was 89%.
